# Test results from patent US7994320B2, “Narcistatin prodrugs” (priority 2002, dated 2011).
# Experiments:
# [1] = system: BXPC-3; assay: Human cancer cell line growth inhibition, pancreas BXPC-3; format: cell-based
# Protocol: (§1) Narciclasine cyclic phosphate prodrugs 3a-o were evaluated against a minipanel of human cancer cell lines and the murine P388 lymphocytic leukemia. The GI50 0.1-0.02 μg/ml strong activity range parallels that already reported for the parent, narciclasine (1). (Pettit, G. R.; Melody, N.; Herald, D. L. J. Org. Chem. 2001, 66, 2583-2587.)
# [2] = system: KM20L2; assay: Human cancer cell line growth inhibition, colon KM20L2; format: cell-based
# Protocol: as §1
# [3] = system: NCI-H460; assay: Human cancer cell line growth inhibition, lung NCI-H460; format: cell-based
# Protocol: as §1
# [4] = system: DU-145; assay: Human cancer cell line growth inhibition, prostate DU-145; format: cell-based
# Protocol: as §1
# [5] = system: MCF-7; assay: Human cancer cell line growth inhibition, breast MCF-7; format: cell-based
# Protocol: as §1
# [6] = system: SF 268; assay: Human cancer cell line growth inhibition, CNS SF 268; format: cell-based
# Protocol: as §1
# [7] = system: P388 lymphocytic leukemia; conditions: U.S. National Cancer Institute research; cited from earlier work
# [8] = system: Erlich asciter cancer cells; conditions: cited from earlier work
# [9] = system: M5076 sarcoma; conditions: U.S. National Cancer Institute research; cited from earlier work
# [10] = Solubility in water; conditions: solvent not stated
Compound,GI50 Pancreas-a BXPC-3 [1],GI50 Colon KM20L2 [2],GI50 Lung-NSC NCI-H460 [3],GI50 Prostate DU-145 [4],GI50 Breast MCF-7 [5],GI50 CNS SF 268 [6],activity against in vivo growth of P388 lymphocytic leukemia [7],inhibition of protein synthesis [8],activity against in vivo growth of M5076 sarcoma [9],solubility [10]
"O=C1N[C@@H]2C(=C[C@H](O)[C@H]3OP(=O)(O)O[C@H]32)c2cc3c(c(O)c21)OCO3.c1ccncc1 [Compound 3a, Pyridinium Narcistatin]",0.22 µg/mL,0.34 µg/mL,0.27 µg/mL,0.17 µg/mL,0.27 µg/mL,0.15 µg/mL,,,,
"O=C1NC2C(=CC(O)C3OP(=O)([O-])OC23)c2cc3c(c(O)c21)OCO3.O=C1NC2C(=CC(O)C3OP(=O)([O-])OC23)c2cc3c(c(O)c21)OCO3.[Mn+2] (stereo not shown) [Compound 3j, Manganese Narcistatin]",0.049 µg/mL,0.13 µg/mL,0.15 µg/mL,0.034 µg/mL,0.07 µg/mL,0.04 µg/mL,,,,
"C=C[C@@H]1CN2CC[C@@H]1C[C@H]2[C@@H](O)c1ccnc2ccc(OC)cc12.O=C1N[C@@H]2C(=C[C@H](O)[C@H]3OP(=O)(O)O[C@H]32)c2cc3c(c(O)c21)OCO3 [Compound 3k, Quinidinium Narcistatin]",0.31 µg/mL,0.58 µg/mL,0.77 µg/mL,0.22 µg/mL,0.5 µg/mL,0.25 µg/mL,,,,
"C=C[C@@H]1CN2CC[C@@H]1C[C@@H]2[C@H](O)c1ccnc2ccc(OC)cc12.O=C1N[C@@H]2C(=C[C@H](O)[C@H]3OP(=O)(O)O[C@H]32)c2cc3c(c(O)c21)OCO3 [Compound 3l, Quininium Narcistatin]",0.051 µg/mL,0.12 µg/mL,0.17 µg/mL,0.013 µg/mL,0.12 µg/mL,0.045 µg/mL,,,,
"C1COCCN1.O=C1N[C@@H]2C(=C[C@H](O)[C@H]3OP(=O)(O)O[C@H]32)c2cc3c(c(O)c21)OCO3 [Compound 3n, Morpholinium Narcistatin]",0.25 µg/mL,0.54 µg/mL,>1 µg/mL,0.14 µg/mL,0.48 µg/mL,0.24 µg/mL,,,,
"O=C1N[C@@H]2C(=C[C@H](O)[C@@H](O)[C@H]2O)c2cc3c(c(O)c21)OCO3 [narciclasine (1), narciclasine]",,,,,,,active,inhibit protein synthesis,active,sparingly soluble
Calcium Narcistatin [Compound 3h],0.045 µg/mL,0.059 µg/mL,0.12 µg/mL,0.0093 µg/mL,0.059 µg/mL,0.031 µg/mL,,,,
Cesium Narcistatin [Compound 3f],0.41 µg/mL,0.66 µg/mL,>1 µg/mL,0.13 µg/mL,0.62 µg/mL,0.33 µg/mL,,,,
Imidazolium Narcistatin [Compound 3m],0.45 µg/mL,>1 µg/mL,>1 µg/mL,0.44 µg/mL,0.9 µg/mL,0.38 µg/mL,,,,
Lithium Narcistatin [Compound 3c],0.25 µg/mL,0.26 µg/mL,0.3 µg/mL,0.13 µg/mL,0.31 µg/mL,0.17 µg/mL,,,,
Magnesium Narcistatin [Compound 3g],0.19 µg/mL,0.31 µg/mL,0.29 µg/mL,0.1 µg/mL,0.25 µg/mL,0.14 µg/mL,,,,
Narcistatin [Compound 3b],0.33 µg/mL,0.53 µg/mL,0.47 µg/mL,0.16 µg/mL,0.35 µg/mL,0.22 µg/mL,,,,
Piperazinium Narcistatin [Compound 3o],0.1 µg/mL,0.22 µg/mL,0.24 µg/mL,0.032 µg/mL,0.17 µg/mL,0.099 µg/mL,,,,
Potassium Narcistatin [Compound 3e],0.36 µg/mL,0.56 µg/mL,0.67 µg/mL,0.26 µg/mL,0.4 µg/mL,0.19 µg/mL,,,,
Sodium Narcistatin [Compound 3d],0.32 µg/mL,0.45 µg/mL,>1 µg/mL,0.12 µg/mL,0.56 µg/mL,0.23 µg/mL,,,,
Zinc Narcistatin [Compound 3i],0.069 µg/mL,0.16 µg/mL,0.21 µg/mL,0.016 µg/mL,0.14 µg/mL,0.053 µg/mL,,,,
